In patent US11713338B2, “Cyclic peptides multimers targeting α-4-β-7 integrin” (priority 2016, dated 2023):

Legend:
[1] = target: T1, integrin α4β7 (RPMI8866 human cells adhering to MAdCAM-1) (Homo sapiens, UniProt P13612+P26010); experiment: Integrin α4β7-MAdCAM cell adhesion assay (RPMI8866 cells); type: cell-based; conditions: RPMI8866 cells adhering to MAdCAM; read-out: RPMI8866 Adhesion α4β7/MAdCAM IC50
T1 construct: RMP18866 cells, which express integrin α4β7; host or cells: RPMI8866
T1 sequence (P13612 34-1032): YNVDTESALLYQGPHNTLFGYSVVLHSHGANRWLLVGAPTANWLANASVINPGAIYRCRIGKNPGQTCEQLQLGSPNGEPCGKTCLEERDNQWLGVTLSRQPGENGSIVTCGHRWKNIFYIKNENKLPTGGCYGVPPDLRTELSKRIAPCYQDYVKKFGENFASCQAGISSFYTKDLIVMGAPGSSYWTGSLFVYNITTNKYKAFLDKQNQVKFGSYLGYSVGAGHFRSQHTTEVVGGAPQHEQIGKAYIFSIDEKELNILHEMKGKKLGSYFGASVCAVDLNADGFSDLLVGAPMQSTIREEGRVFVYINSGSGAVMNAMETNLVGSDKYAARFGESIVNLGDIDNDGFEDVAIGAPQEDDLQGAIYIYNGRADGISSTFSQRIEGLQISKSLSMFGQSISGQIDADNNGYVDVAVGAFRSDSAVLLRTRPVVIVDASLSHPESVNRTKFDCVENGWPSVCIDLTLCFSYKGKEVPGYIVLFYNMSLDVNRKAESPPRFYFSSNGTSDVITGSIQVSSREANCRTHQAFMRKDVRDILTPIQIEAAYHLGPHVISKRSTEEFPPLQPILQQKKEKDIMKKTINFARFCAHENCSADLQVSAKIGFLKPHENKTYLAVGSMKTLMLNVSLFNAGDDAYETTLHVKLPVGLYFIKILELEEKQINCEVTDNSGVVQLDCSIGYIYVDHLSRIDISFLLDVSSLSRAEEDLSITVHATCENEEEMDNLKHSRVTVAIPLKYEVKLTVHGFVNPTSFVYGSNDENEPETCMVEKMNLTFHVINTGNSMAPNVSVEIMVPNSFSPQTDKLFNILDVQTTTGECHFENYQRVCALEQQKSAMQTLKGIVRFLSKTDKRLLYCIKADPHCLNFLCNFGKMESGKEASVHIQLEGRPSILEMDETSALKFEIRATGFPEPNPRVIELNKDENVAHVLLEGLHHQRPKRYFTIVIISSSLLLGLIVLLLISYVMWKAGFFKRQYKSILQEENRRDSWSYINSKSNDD
T1 sequence (P26010 20-798): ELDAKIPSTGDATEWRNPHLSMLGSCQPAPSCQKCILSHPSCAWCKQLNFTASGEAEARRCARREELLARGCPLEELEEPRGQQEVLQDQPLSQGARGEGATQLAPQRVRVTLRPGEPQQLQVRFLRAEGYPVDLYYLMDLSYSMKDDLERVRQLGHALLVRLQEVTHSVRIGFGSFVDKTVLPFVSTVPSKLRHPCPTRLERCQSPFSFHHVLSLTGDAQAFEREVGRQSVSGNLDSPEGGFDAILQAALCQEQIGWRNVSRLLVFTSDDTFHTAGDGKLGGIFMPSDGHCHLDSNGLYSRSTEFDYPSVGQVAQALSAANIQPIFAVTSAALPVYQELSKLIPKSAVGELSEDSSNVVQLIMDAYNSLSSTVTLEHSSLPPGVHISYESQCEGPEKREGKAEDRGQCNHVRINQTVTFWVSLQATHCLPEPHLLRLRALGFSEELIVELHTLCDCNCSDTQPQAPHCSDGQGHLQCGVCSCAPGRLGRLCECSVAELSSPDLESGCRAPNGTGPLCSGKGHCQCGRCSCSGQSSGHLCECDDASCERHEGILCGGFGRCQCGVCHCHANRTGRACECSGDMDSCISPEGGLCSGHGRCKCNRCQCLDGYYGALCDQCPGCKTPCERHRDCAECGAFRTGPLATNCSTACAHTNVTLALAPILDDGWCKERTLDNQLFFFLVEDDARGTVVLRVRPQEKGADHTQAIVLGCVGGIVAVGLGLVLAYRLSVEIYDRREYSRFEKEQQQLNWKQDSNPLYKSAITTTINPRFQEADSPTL
Method in brief: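 Adhesion was read by calcein fluorescence. RPMI8866 cells were labelled at 10 million cells/ml with […] calcein (37° C., 30 min) and washed twice in PBS before reading. Dose-response values were corrected by subtracting cell-free control well fluorescence.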

[2] = target: T2, integrin α4β1 (RAMOS human cells adhering to VCAM-1) (Homo sapiens, UniProt P05556+P13612); experiment: Integrin α4β1-VCAM cell adhesion assay (RAMOS cells); type: cell-based; conditions: for IC50: Ramos cells adhering to VCAM, read-out: Ramos Adhesion α4β1/VCAM IC50; for Ratio Ramos/RPMI: ratio of cell adhesion IC50s, Ramos α4β1/VCAM over RPMI8866 α4β7/MAdCAM
T2 construct: Ramos cells, which express integrin α4β1; host or cells: RAMOS
Method in brief: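 Human RAMOS cells loaded with calcein ([…] in PBS, 37° C, 30 min) allowed to adhere to VCAM-1-coated wells blocked with 1% milk. After PBS washes, adherent-cell fluorescence measured and cell-free well background subtracted to build dose-response.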

T2 sequence (P05556 21-798, one chain of several): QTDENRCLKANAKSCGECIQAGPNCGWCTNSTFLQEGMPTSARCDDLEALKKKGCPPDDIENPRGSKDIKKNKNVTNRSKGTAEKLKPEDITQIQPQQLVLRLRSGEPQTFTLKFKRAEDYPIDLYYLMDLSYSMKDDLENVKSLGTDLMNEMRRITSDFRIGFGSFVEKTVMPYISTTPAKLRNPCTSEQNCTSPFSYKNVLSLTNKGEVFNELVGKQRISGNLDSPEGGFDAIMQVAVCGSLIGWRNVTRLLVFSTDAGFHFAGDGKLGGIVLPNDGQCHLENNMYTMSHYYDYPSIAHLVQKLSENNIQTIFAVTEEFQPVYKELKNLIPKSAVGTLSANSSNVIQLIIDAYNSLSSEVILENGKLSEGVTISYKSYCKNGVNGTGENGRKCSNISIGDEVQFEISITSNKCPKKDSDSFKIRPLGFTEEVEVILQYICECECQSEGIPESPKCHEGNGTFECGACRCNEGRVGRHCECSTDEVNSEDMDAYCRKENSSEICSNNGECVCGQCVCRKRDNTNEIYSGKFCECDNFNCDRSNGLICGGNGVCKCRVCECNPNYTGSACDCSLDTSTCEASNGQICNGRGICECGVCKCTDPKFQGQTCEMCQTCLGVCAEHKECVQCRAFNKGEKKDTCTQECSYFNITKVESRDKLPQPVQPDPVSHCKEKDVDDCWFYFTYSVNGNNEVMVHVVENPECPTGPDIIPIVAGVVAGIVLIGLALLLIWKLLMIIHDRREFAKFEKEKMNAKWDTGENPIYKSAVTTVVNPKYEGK

| SMILES | IC50 [1] | IC50 [2] | Ratio Ramos/RPMI [2] |
| --- | --- | --- | --- |
| CC(C)C[C@@H]1NC(=O)c2ccc(-c3ccc(N4CCN(C(=O)c5nccnc5C(=O)N5CCN(c6ccc(-c7ccc8cc7CNC(=O)[C@@H]7CCCN7[C@H](C(=O)NC(C)(C)C)[C@H](C)NC(=O)[C@H]([C@@H](C)O)NC(=O)[C@H](CC(=O)O)NC(=O)[C@H](CC(C)C)NC8=O)cc6)CC5)CC4)cc3)c(c2)CNC(=O)[C@@H]2CCCN2[C@H](C(=O)NC(C)(C)C)[C@H](C)NC(=O)[C@H]([C@@H](C)O)NC(=O)[C@H](CC(=O)O)NC1=O [Compound 467] | 0.043 µM | 0.876 µM | 20 |
| CC(C)C[C@@H]1NC(=O)C[C@H](CCCCN)N(C)C(=O)[C@H](CCCCNC(=O)CCCCCCCCC(=O)NCCCC[C@@H]2NC(=O)[C@@H]3CCCN3[C@H](C(=O)NC(C)(C)C)[C@H](C)NC(=O)[C@H]([C@@H](C)O)NC(=O)[C@H](CC(=O)O)NC(=O)[C@H](CC(C)C)NC(=O)C[C@H](CCCCN)N(C)C2=O)NC(=O)[C@@H]2CCCN2[C@H](C(=O)NC(C)(C)C)[C@H](C)NC(=O)[C@H]([C@@H](C)O)NC(=O)[C@H](CC(=O)O)NC1=O [Compound 530] | 0.015 µM | 10.6 µM | 704 |
| CC(C)C[C@@H]1NC(=O)c2ccc(-c3ccc(N4CCN(C(=O)CC[C@H](N)C(=O)N5CCN(c6ccc(-c7ccc8cc7CNC(=O)[C@@H]7CCCN7[C@H](C(=O)NC(C)(C)C)[C@H](C)NC(=O)[C@H]([C@@H](C)O)NC(=O)[C@H](CC(=O)O)NC(=O)[C@H](CC(C)C)NC8=O)cc6)CC5)CC4)cc3)c(c2)CNC(=O)[C@@H]2CCCN2[C@H](C(=O)NC(C)(C)C)[C@H](C)NC(=O)[C@H]([C@@H](C)O)NC(=O)[C@H](CC(=O)O)NC1=O [Compound 494] | 0.05 µM | 0.161 µM | 3 |
| CC(C)C[C@@H]1NC(=O)c2ccc(-c3ccc(N4CCN(c5ncc([N+](=O)[O-])c(N6CCN(c7ccc(-c8ccc9cc8CNC(=O)[C@@H]8CCCN8[C@H](C(=O)NC(C)(C)C)[C@H](C)NC(=O)[C@H]([C@@H](C)O)NC(=O)[C@H](CC(=O)O)NC(=O)[C@H](CC(C)C)NC9=O)cc7)CC6)n5)CC4)cc3)c(c2)CNC(=O)[C@@H]2CCCN2[C@H](C(=O)NC(C)(C)C)[C@H](C)NC(=O)[C@H]([C@@H](C)O)NC(=O)[C@H](CC(=O)O)NC1=O [Compound 468] | 0.013 µM | 0.677 µM | 51 |
| CC(C)C[C@@H]1NC(=O)c2ccc(-c3ccc(N4CCN(C(=O)CCOCCOCCOCCOCCOCCOCCOCCOCCOCCOCCC(=O)N5CCN(c6ccc(-c7ccc8cc7CNC(=O)[C@@H]7CCCN7[C@H](C(=O)NC(C)(C)C)[C@H](C)NC(=O)[C@H]([C@@H](C)O)NC(=O)[C@H](CC(=O)O)NC(=O)[C@H](CC(C)C)NC8=O)cc6)CC5)CC4)cc3)c(c2)CNC(=O)[C@@H]2CCCN2[C@H](C(=O)NC(C)(C)C)[C@H](C)NC(=O)[C@H]([C@@H](C)O)NC(=O)[C@H](CC(=O)O)NC1=O [Compound 511] | 0.03 µM | 3.99 µM | 133 |
| CC(C)C[C@@H]1NC(=O)c2ccc(-c3ccc(N4CCN(Cc5cc(CN6CCN(c7ccc(-c8ccc9cc8CNC(=O)[C@@H]8CCCN8[C@H](C(=O)NC(C)(C)C)[C@H](C)NC(=O)[C@H]([C@@H](C)O)NC(=O)[C@H](CC(=O)O)NC(=O)[C@H](CC(C)C)NC9=O)cc7)CC6)cc(CN6CCN(c7ccc(-c8ccc9cc8CNC(=O)[C@@H]8CCCN8[C@H](C(=O)NC(C)(C)C)[C@H](C)NC(=O)[C@H]([C@@H](C)O)NC(=O)[C@H](CC(=O)O)NC(=O)[C@H](CC(C)C)NC9=O)cc7)CC6)c5)CC4)cc3)c(c2)CNC(=O)[C@@H]2CCCN2[C@H](C(=O)NC(C)(C)C)[C@H](C)NC(=O)[C@H]([C@@H](C)O)NC(=O)[C@H](CC(=O)O)NC1=O [Compound 518] | 0.018 µM | 0.947 µM |  |
| CC(C)C[C@@H]1NC(=O)c2ccc(-c3ccc(N4CCN(Cc5ccc(CN6CCN(c7ccc(-c8ccc9cc8CNC(=O)[C@@H]8CCCN8[C@H](C(=O)NC(C)(C)C)[C@H](C)NC(=O)[C@H]([C@@H](C)O)NC(=O)[C@H](CC(=O)O)NC(=O)[C@H](CC(C)C)NC9=O)cc7)CC6)cc5)CC4)cc3)c(c2)CNC(=O)[C@@H]2CCCN2[C@H](C(=O)NC(C)(C)C)[C@H](C)NC(=O)[C@H]([C@@H](C)O)NC(=O)[C@H](CC(=O)O)NC1=O [Compound 500] | 0.032 µM | 1 µM | 31 |
| CC(C)C[C@@H]1NC(=O)c2ccc(-c3ccc(N4CCN(C(=O)C5(C(=O)N6CCN(c7ccc(-c8ccc9cc8CNC(=O)[C@@H]8CCCN8[C@H](C(=O)NC(C)(C)C)[C@H](C)NC(=O)[C@H]([C@@H](C)O)NC(=O)[C@H](CC(=O)O)NC(=O)[C@H](CC(C)C)NC9=O)cc7)CC6)Cc6ccccc6C5)CC4)cc3)c(c2)CNC(=O)[C@@H]2CCCN2[C@H](C(=O)NC(C)(C)C)[C@H](C)NC(=O)[C@H]([C@@H](C)O)NC(=O)[C@H](CC(=O)O)NC1=O [Compound 461] | 0.039 µM | 1.22 µM | 31 |
| CC(C)C[C@@H]1NC(=O)C[C@H](CCCCN)N(C)C(=O)[C@H](CCCCNC(=O)CCOCCOCCOCCOCCOCCOCCOCCC(=O)NCCCC[C@@H]2NC(=O)[C@@H]3CCCN3[C@H](C(=O)NC(C)(C)C)[C@H](C)NC(=O)[C@H]([C@@H](C)O)NC(=O)[C@H](CC(=O)O)NC(=O)[C@H](CC(C)C)NC(=O)C[C@H](CCCCN)N(C)C2=O)NC(=O)[C@@H]2CCCN2[C@H](C(=O)NC(C)(C)C)[C@H](C)NC(=O)[C@H]([C@@H](C)O)NC(=O)[C@H](CC(=O)O)NC1=O [Compound 536] | 0.016 µM | 7.82 µM | 479 |
| CC(C)C[C@@H]1NC(=O)c2ccc(-c3ccc(N4CCN(CCC(=O)N5CCN(c6ccc(-c7ccc8cc7CNC(=O)[C@@H]7CCCN7[C@H](C(=O)NC(C)(C)C)[C@H](C)NC(=O)[C@H]([C@@H](C)O)NC(=O)[C@H](CC(=O)O)NC(=O)[C@H](CC(C)C)NC8=O)cc6)CC5)CC4)cc3)c(c2)CNC(=O)[C@@H]2CCCN2[C@H](C(=O)NC(C)(C)C)[C@H](C)NC(=O)[C@H]([C@@H](C)O)NC(=O)[C@H](CC(=O)O)NC1=O [Compound 482] | 0.026 µM | 0.825 µM |  |
| CC(C)C[C@@H]1NC(=O)c2ccc(-c3ccc(N4CCN(Cc5cccc(CN6CCN(c7ccc(-c8ccc9cc8CNC(=O)[C@@H]8CCCN8[C@H](C(=O)NC(C)(C)C)[C@H](C)NC(=O)[C@H]([C@@H](C)O)NC(=O)[C@H](CC(=O)O)NC(=O)[C@H](CC(C)C)NC9=O)cc7)CC6)c5)CC4)cc3)c(c2)CNC(=O)[C@@H]2CCCN2[C@H](C(=O)NC(C)(C)C)[C@H](C)NC(=O)[C@H]([C@@H](C)O)NC(=O)[C@H](CC(=O)O)NC1=O [Compound 499] | 0.042 µM | 0.878 µM | 21 |
